According to patent publication US20080003184A1, “Superparamagnetic Gadolinium Oxide Nanoscale Particles and Compositions Comprising Such Particles” (priority 2004, published 2008):
Where two headings read alike, the source gives them in different places.

How the values were obtained:
[1] = Magnevist 0.1 mmol/kg, cited from earlier work
[2] = Signal intensity from first echo of spin echo sequence (TE=30 ms, TR=500 ms); type: physicochemical
Protocol: (§1) Samples of Gd2O3-DEG from Example 1 (with an average particle size of about 5 nm and a particle size range from about 1 to 15 nm) and Gd-DTPA (Magnevist®) were prepared in 10 mm NMR test tubes with H2O at 9 different Gd concentrations from […]. At measurement the test tubes were immersed in a bowl with saline at 22-23° C., which was the temperature of the scanner room.
(§2) T1 and T2 relaxation times were measured with a 1.5 T Philips Achieva whole body scanner using the head coil. A 2D mixed multi-echo SE interleaved with multi-echo IR sequence was used for the measurements [kleef_mrm—1987]. Imaging time parameters were varied to minimise the standard deviations in relaxation time calculations: TE=30 ms, TR (SE)=500 ms, TI=150 ms, and TR (IR)=1150 ms (set 1); TE=50 ms, TR (SE)=760 ms, TI=370 ms, and TR (IR)=2290 ms (set 2). Other MR parameters were: FOV=23 cm, slice thickness=7 mm, number of echoes=4.
At higher concentrations (>0.9 mM) the strong T2 effect attenuated the signal for the nanoparticle samples. That is, the Gd2O3 sample reached the signal intensity peak at lower concentrations (0.6 mM) compared to the Gd-DTPA signal intensity that peaked at approximately 1.2 mM in this sequence.
In addition, samples of Gd2O3-DEG and Resovist® were prepared and tested under the same conditions as above. There were 6 different Gd and Fe concentrations between 0.1 and 1.5 mM. […]

[3] = test system: THP-1 cells; assay: Monocyte studies: incubation, washing, T1/T2 measurement; type: cell-based; conditions: 0.1-0.9 mM Gd, 2 h or 8 h at 37° C., washed twice
Protocol: For monocyte experiments, THP-1 cells were cultured in RPMI 1640 medium with 10% fetal calf serum (GIBCO, Invitrogen, Carlsbad, Calif., USA) with additions of L-glutamate and penicillin/streptomycin solution (Invitrogen). Cells were counted and found 97% viable. Cells were treated with Gd2O3-DEG or Gd-DTPA in concentrations 0.1, 0.3, 0.6, and 0.9 mM. Cells of one well were left untreated. A control series was prepared of cell culture medium only with the different concentrations of Gd2O3-DEG particles. Two plates of 24 wells each were prepared as described above; one was incubated with the Gd2O3-DEG and Gd-DTPA for 2 h and the other one for 8 h at 37° C. After incubation cells were transferred to Falcon tubes and washed twice with medium and centrifugated for 8 minutes at 1100 rpm.

[4] = Relaxation time measurements (T1, T2 relaxivity) in H2O, 1.5 T scanner; type: physicochemical; conditions: 22-23° C.
Protocol: as §1, §2
In addition, samples of Gd2O3-DEG and Resovist® were prepared and tested under the same conditions as above. There were 6 different Gd and Fe concentrations between 0.1 and 1.5 mM. Resovist® is based on ferrocarbotran colloidal sol of superparamagnetic iron oxide nanoparticles (SPIO). The particles have a hydrodynamic diameter of 60 nm on an iron core of 4 nm. […] Accordingly, Gd2O3-DEG particles enable a contrast agent with complementary properties to those based on SPIO.

## O=C([O-])CN(CCN(CC(=O)[O-])CC(=O)O)CCN(CC(=O)[O-])CC(=O)O.[Gd+3] [Gd-DTPA]
[1]; 3 minutes after injection
  detected plasma concentration of Gd: 0.6 mM
[1]; 60 minutes after injection
  detected plasma concentration of Gd: 0.24 mM
[2]
  Gd concentration at signal intensity peak: approximately 1.2 mM
[3]
  Presence with cells after the washing procedure: not present in the cell suspension after the washing
[4]
  r1 relaxivity constant: 4.86 ± 0.08 mM⁻¹ s⁻¹
  r2 relaxivity constant: 5.53 ± 0.14 mM⁻¹ s⁻¹
